In article PMC4935531 (Journal of Acquired Immune Deficiency Syndromes (1999), 2016):
Read-outs that look alike come from different tables or passages of the source.

Columns and labels:
[1] = cited from earlier work
OCT2 [2] = conditions: cited from earlier work
human OCT3 = molecular target: T1, human OCT3 (Homo sapiens, UniProt O75751); assay: Inhibition of probe substrate uptake by OCT3 in transfected MDCK-II cells; assay type: in vitro ADME; conditions: dolutegravir ≤10 μM; 10 µM [14C]metformin
T1 sequence (O75751 1-556): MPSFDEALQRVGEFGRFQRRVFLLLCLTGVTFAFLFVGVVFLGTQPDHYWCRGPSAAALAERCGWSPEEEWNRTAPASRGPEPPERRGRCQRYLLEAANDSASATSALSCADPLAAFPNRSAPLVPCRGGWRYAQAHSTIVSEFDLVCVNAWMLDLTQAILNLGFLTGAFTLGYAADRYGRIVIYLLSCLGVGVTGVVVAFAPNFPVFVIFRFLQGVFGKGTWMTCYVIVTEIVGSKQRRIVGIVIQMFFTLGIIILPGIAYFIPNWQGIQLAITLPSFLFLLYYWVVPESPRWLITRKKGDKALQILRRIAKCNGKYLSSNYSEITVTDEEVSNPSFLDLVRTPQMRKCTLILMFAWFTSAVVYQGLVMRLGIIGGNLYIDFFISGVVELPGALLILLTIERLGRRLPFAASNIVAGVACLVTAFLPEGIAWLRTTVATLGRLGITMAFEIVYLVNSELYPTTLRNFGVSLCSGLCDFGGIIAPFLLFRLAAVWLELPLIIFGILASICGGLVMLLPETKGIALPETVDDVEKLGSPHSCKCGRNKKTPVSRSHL

OCT2 [3] = conditions: cited from earlier work; remark: listed apart in the source
Caco-2 cell monolayers = assay: Cellular uptake of [14C]metformin in Caco-2 cell monolayers; assay type: in vitro ADME; conditions: dolutegravir 0.3-100 µM
OCT1 = conditions: at 10 μM; cited from earlier work
human PMAT = molecular target: T2, human PMAT (Homo sapiens, UniProt Q7RTT9); assay: Inhibition of probe substrate uptake by PMAT in transfected MDCK-II cells; assay type: in vitro ADME; conditions: dolutegravir ≤100 μM; 10 µM [14C]metformin
T2 sequence (Q7RTT9 1-530): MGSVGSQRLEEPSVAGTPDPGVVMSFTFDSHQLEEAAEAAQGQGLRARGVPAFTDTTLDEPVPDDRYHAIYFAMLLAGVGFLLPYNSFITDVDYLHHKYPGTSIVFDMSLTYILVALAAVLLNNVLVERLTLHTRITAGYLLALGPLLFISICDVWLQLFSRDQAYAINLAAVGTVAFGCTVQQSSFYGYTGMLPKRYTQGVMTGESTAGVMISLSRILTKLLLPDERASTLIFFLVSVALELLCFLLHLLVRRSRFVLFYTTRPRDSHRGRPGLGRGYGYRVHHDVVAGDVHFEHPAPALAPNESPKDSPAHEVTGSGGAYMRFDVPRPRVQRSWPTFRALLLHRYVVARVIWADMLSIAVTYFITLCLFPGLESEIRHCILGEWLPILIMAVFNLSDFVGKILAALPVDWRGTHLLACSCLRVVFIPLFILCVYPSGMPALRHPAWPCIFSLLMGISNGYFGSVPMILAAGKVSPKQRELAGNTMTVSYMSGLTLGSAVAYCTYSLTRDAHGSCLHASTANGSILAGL

[4] = Safety monitoring: drug-related adverse events in healthy subjects; assay type: in vivo, human; conditions: metformin 500 mg q12h alone or with dolutegravir 50 mg q24h or q12h
[5] = assay type: in vivo, human; conditions: for Metformin t(1/2) with vs without co-administration of dolutegravir: dolutegravir 50 mg q24h or q12h
[6] = co-administration of cimetidine

CN/C(=N/CCSCc1nc[nH]c1C)NC#N [Cimetidine]
Increase in metformin AUC [1, 6]: 40% | Increase in metformin peak concentration [1, 6]: 60%

C[C@@H]1CCO[C@H]2Cn3cc(C(=O)NCc4ccc(F)cc4F)c(=O)c(O)c3C(=O)N12 [Dolutegravir]
Dolutegravir free fraction (OCT2 [2]): ≥ 1.1% | Cmax (OCT2 [2]; read-out: Dolutegravir Cmax, twice daily dosing): 13 µM | Inhibition of [14C]metformin transport by OCT3 (human OCT3): no inhibition | IC50 (OCT2 [3]; read-out: IC50 for OCT2): 1900 nM | IC50 (OCT2 [3]; read-out: OCT2 inhibitory potency, tetraethylammonium as the substrate): 66 nM | Effect on cellular uptake of metformin in the Caco-2 intestinal cell line (Caco-2 cell monolayers): unaffected | Inhibition of OCT1 (OCT1): 22% | Inhibition of [14C]metformin uptake by PMAT (human PMAT): no inhibition

CN(C)C(=N)N=C(N)N [Metformin]
Tolerability [4]: well tolerated | Decrease in metformin CL/F ([5]; co-administration of dolutegravir 50 mg q12h): 59% | Decrease in metformin CL/F ([5]; co-administration of dolutegravir 50 mg q24h): 44% | Metformin t(1/2) with vs without co-administration of dolutegravir [5]: unchanged | Metformin t(1/2) with vs without co-administration of dolutegravir ([5]; listed as metformin): similar | Fraction of drug excreted unchanged in the urine ([1]; within 24 hours, oral and intravenous administration): 90%
